Source: PubChem BioAssay (NCI)
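1) Cells in 96-well plates. 2) Compound, 48 h, 5 concentrations. 3) Linear interpolation between surrounding doses. 4) Unreached endpoint = highest concentration. The concentration for 50% growth inhibition is given as GI50. TGI: total growth inhibition.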

Assays:
Assay in all cases: growth of human tumour cells (NCI), 48 h
[1] = test system: 786-0 renal
[2] = test system: A498 renal
[3] = test system: A549 NSCLC
[4] = test system: ACHN renal
[5] = test system: BT-549 breast
[6] = test system: CAKI-1 renal
[7] = test system: CCRF-CEM leukemia
[8] = test system: COLO 205 colon
[9] = test system: DU-145 prostate
[10] = test system: EKVX NSCLC
[11] = test system: HCC-2998 colon
[12] = test system: HCT-116 colon
[13] = test system: HCT-15 colon
[14] = test system: HL-60(TB) leukemia
[15] = test system: HOP-62 NSCLC
[16] = test system: HOP-92 NSCLC
[17] = test system: HS 578T breast
[18] = test system: HT29 colon
[19] = test system: IGROV1 ovarian
[20] = test system: K-562 leukemia
[21] = test system: KM12 colon
[22] = test system: LOX IMVI melanoma
[23] = test system: M14 melanoma
[24] = test system: MALME-3M melanoma
[25] = test system: MCF7 breast
[26] = test system: MDA-MB-231 breast
[27] = test system: MDA-MB-435
[28] = test system: MOLT-4 leukemia
[29] = test system: NCI-H226 lung
[30] = test system: NCI-H23 lung
[31] = test system: NCI-H460 lung
[32] = test system: NCI-H522 lung
[33] = test system: NCI/ADR-RES ovarian
[34] = test system: OVCAR-3 ovarian
[35] = test system: OVCAR-4 ovarian
[36] = test system: OVCAR-5 ovarian
[37] = test system: OVCAR-8 ovarian
[38] = test system: PC-3 prostate
[39] = test system: RPMI-8226 leukemia
[40] = test system: RXF 393 renal
[41] = test system: SF-268 CNS
[42] = test system: SF-295 CNS
[43] = test system: SF-539 CNS
[44] = test system: SK-MEL-2 melanoma
[45] = test system: SK-MEL-28 melanoma
[46] = test system: SK-MEL-5 melanoma
[47] = test system: SK-OV-3 ovarian
[48] = test system: SN12C renal
[49] = test system: SNB-19 CNS
[50] = test system: SR leukemia
[51] = test system: SW-620 colon
[52] = test system: T-47D breast
[53] = test system: TK-10 renal
[54] = test system: U251 CNS
[55] = test system: UACC-257 melanoma
[56] = test system: UACC-62 melanoma
[57] = test system: UO-31 renal
[58] = test system: MDA-N
[59] = test system: SNB-75 CNS

Cc1oc2nc[nH]c(=O)c2c1C(=O)/C=C/c1ccc(Cl)cc1
GI50 [1]: 3.02 µM
TGI [1]: 10.3 µM
GI50 [2]: 1.48 µM
TGI [2]: 5.83 µM
GI50 [3]: 2.66 µM
TGI [3]: 11.2 µM
GI50 [4]: 1.99 µM
TGI [4]: 6.04 µM
GI50 [5]: 2.24 µM
TGI [5]: 6.55 µM
GI50 [6]: 3.06 µM
TGI [6]: 22.8 µM
GI50 [7]: 1.81 µM
TGI [7]: 6.94 µM
GI50 [8]: 1.9 µM
TGI [8]: 4.22 µM
GI50 [9]: 2.82 µM
TGI [9]: 11.3 µM
GI50 [10]: 2.37 µM
TGI [10]: 15.9 µM
GI50 [11]: 1.79 µM
TGI [11]: 3.65 µM
GI50 [12]: 1.59 µM
TGI [12]: 3.94 µM
GI50 [13]: 1.29 µM
TGI [13]: 3.51 µM
GI50 [14]: 2.64 µM
TGI [14]: 7.78 µM
GI50 [15]: 2.83 µM
TGI [15]: 12.6 µM
GI50 [16]: 1.47 µM
TGI [16]: 7.18 µM
GI50 [17]: 3.66 µM
TGI [17]: > 100 µM
GI50 [18]: 2.9 µM
TGI [18]: 10.6 µM
GI50 [19]: 1.82 µM
TGI [19]: 10.8 µM
GI50 [20]: 1.82 µM
TGI [20]: 11.3 µM
GI50 [21]: 2.97 µM
TGI [21]: 9.16 µM
GI50 [22]: 1.6 µM
TGI [22]: 3.32 µM
GI50 [23]: 1.96 µM
TGI [23]: 6.72 µM
GI50 [24]: 2.13 µM
TGI [24]: 8.29 µM
GI50 [25]: 1.39 µM
TGI [25]: 12.3 µM
GI50 [26]: 2.64 µM
TGI [26]: 14.6 µM
GI50 [27]: 2.4 µM
TGI [27]: 8.64 µM
GI50 [28]: 2.75 µM
TGI [28]: 9.98 µM
GI50 [29]: 1.96 µM
TGI [29]: 7.36 µM
GI50 [30]: 2.51 µM
TGI [30]: 15.3 µM
GI50 [31]: 2.56 µM
TGI [31]: 7.03 µM
GI50 [32]: 1.79 µM
TGI [32]: 5.74 µM
GI50 [33]: 2.44 µM
TGI [33]: 21 µM
GI50 [34]: 2.3 µM
TGI [34]: 7.83 µM
GI50 [35]: 4.43 µM
TGI [35]: 16.1 µM
GI50 [36]: 3.17 µM
TGI [36]: 12 µM
GI50 [37]: 2.67 µM
TGI [37]: 31.9 µM
GI50 [38]: 2.49 µM
TGI [38]: 8.76 µM
GI50 [39]: 1.66 µM
TGI [39]: 5.16 µM
GI50 [40]: 1.97 µM
TGI [40]: 4.98 µM
GI50 [41]: 3.17 µM
TGI [41]: 16.8 µM
GI50 [42]: 4.5 µM
TGI [42]: 16 µM
GI50 [43]: 2.37 µM
TGI [43]: 6.71 µM
GI50 [44]: 3.13 µM
TGI [44]: 12.3 µM
GI50 [45]: 2.51 µM
TGI [45]: 8.77 µM
GI50 [46]: 2.25 µM
TGI [46]: 5.85 µM
GI50 [47]: 3.09 µM
TGI [47]: 13.8 µM
GI50 [48]: 2.79 µM
TGI [48]: 14.2 µM
GI50 [49]: 3.28 µM
TGI [49]: 13.7 µM
GI50 [50]: 1.51 µM
TGI [50]: 6.3 µM
GI50 [51]: 2.53 µM
TGI [51]: 7.19 µM
GI50 [52]: 1.72 µM
TGI [52]: 7.82 µM
GI50 [53]: 5.09 µM
TGI [53]: 13.6 µM
GI50 [54]: 1.97 µM
TGI [54]: 5.01 µM
GI50 [55]: 2.72 µM
TGI [55]: 12.7 µM
GI50 [56]: 1.64 µM
TGI [56]: 5.37 µM
GI50 [57]: 1.09 µM
TGI [57]: 11 µM

O=C(CBr)N1CCC2(CC1)SSC1(CCN(C(=O)CBr)CC1)S2
TGI [1]: 1.81 µM
TGI [3]: 3.95 µM
TGI [4]: 2.87 µM
TGI [8]: 1.13 µM
TGI [12]: 1.29 µM
TGI [13]: 2.96 µM
TGI [17]: 4.29 µM
TGI [20]: > 100 µM
TGI [23]: 2.86 µM
TGI [26]: 4.57 µM
TGI [27]: 4.48 µM
TGI [58]: 2.81 µM
TGI [30]: 3.13 µM
TGI [31]: 3.48 µM
TGI [33]: 4.32 µM
TGI [36]: 3.03 µM
TGI [37]: 4.62 µM
TGI [38]: 3.38 µM
TGI [42]: 3.51 µM
TGI [43]: 3.09 µM
TGI [45]: 4.55 µM
TGI [47]: 2.71 µM
TGI [48]: 3.71 µM
TGI [49]: 3.48 µM
TGI [51]: 1.21 µM
TGI [55]: 12.9 µM
TGI [56]: 2.96 µM
TGI [57]: 2.01 µM

C=CCn1c(=O)c2cnc(Nc3ccc(N4CCN(C)CC4)cc3)nc2n1-c1ccc2c(n1)[C@@](O)(CC)CC2
GI50 [1]: 0.271 µM
TGI [1]: 12.2 µM
GI50 [2]: 0.161 µM
TGI [2]: 3.62 µM
GI50 [3]: 2 µM
TGI [3]: 35.8 µM
GI50 [4]: 0.161 µM
TGI [4]: 36.8 µM
GI50 [5]: 0.287 µM
TGI [5]: 3.46 µM
GI50 [6]: 0.113 µM
TGI [6]: 20.5 µM
GI50 [7]: 0.2 µM
TGI [7]: 1.81 µM
GI50 [8]: 0.336 µM
TGI [8]: 2.57 µM
GI50 [9]: 0.939 µM
TGI [9]: 35.3 µM
GI50 [10]: 1.12 µM
TGI [10]: 22.5 µM
GI50 [11]: 0.593 µM
TGI [11]: 3.82 µM
GI50 [12]: 0.415 µM
TGI [12]: 16 µM
GI50 [13]: 0.949 µM
TGI [13]: 13.8 µM
GI50 [14]: 0.189 µM
TGI [14]: 1.3 µM
GI50 [15]: 1.29 µM
TGI [15]: 13.8 µM
GI50 [16]: 0.494 µM
TGI [16]: 30.5 µM
GI50 [17]: 0.755 µM
TGI [17]: 12.4 µM
GI50 [18]: 0.261 µM
TGI [18]: 4.49 µM
GI50 [19]: 0.212 µM
TGI [19]: 13.6 µM
GI50 [20]: 0.325 µM
TGI [20]: > 34.8 µM
GI50 [21]: 0.391 µM
TGI [21]: 3.82 µM
GI50 [22]: 1.02 µM
TGI [22]: 9.89 µM
GI50 [23]: 0.225 µM
TGI [23]: 5.81 µM
GI50 [24]: 0.576 µM
TGI [24]: 12 µM
GI50 [25]: 0.344 µM
TGI [25]: > 42.8 µM
GI50 [26]: 0.558 µM
TGI [26]: 4.19 µM
GI50 [27]: 0.226 µM
TGI [27]: 0.795 µM
GI50 [28]: 0.296 µM
TGI [28]: 1.37 µM
GI50 [29]: 1.94 µM
TGI [29]: 15.2 µM
GI50 [30]: 0.25 µM
TGI [30]: 1.42 µM
GI50 [31]: 1.94 µM
TGI [31]: 16.7 µM
GI50 [32]: 0.221 µM
TGI [32]: 0.888 µM
GI50 [33]: 5.69 µM
TGI [33]: 33.5 µM
GI50 [34]: 0.333 µM
TGI [34]: 2.86 µM
GI50 [35]: 1.89 µM
TGI [35]: > 39.9 µM
GI50 [36]: 1.2 µM
TGI [36]: 19.5 µM
GI50 [37]: 0.573 µM
TGI [37]: 5.62 µM
GI50 [38]: 2.24 µM
TGI [38]: > 100 µM
GI50 [39]: 1.74 µM
TGI [39]: 14.5 µM
GI50 [40]: 0.131 µM
TGI [40]: 0.686 µM
GI50 [41]: 2.07 µM
TGI [41]: > 63.5 µM
GI50 [42]: 0.742 µM
TGI [42]: 18.7 µM
GI50 [43]: 0.175 µM
TGI [43]: 0.68 µM
GI50 [44]: 0.332 µM
TGI [44]: 2.44 µM
GI50 [45]: 3.68 µM
TGI [45]: 21.6 µM
GI50 [46]: 0.3 µM
TGI [46]: 1.27 µM
GI50 [47]: 0.284 µM
TGI [47]: 4.48 µM
GI50 [48]: 0.507 µM
TGI [48]: > 55.7 µM
GI50 [49]: 1.85 µM
TGI [49]: > 100 µM
GI50 [59]: 1.07 µM
TGI [59]: 13.7 µM
GI50 [50]: 0.193 µM
TGI [50]: 1.38 µM
GI50 [51]: 0.525 µM
TGI [51]: > 100 µM
GI50 [52]: 2.17 µM
TGI [52]: > 80.7 µM
GI50 [53]: 1.41 µM
TGI [53]: 49.2 µM
GI50 [54]: 1.11 µM
TGI [54]: 35.7 µM
GI50 [55]: 1.75 µM
TGI [55]: 18.1 µM
GI50 [56]: 0.504 µM
TGI [56]: 16.4 µM
GI50 [57]: 0.36 µM
TGI [57]: 6.96 µM
